Literature values as cited in US7326683B2, “Treatment of membrane-associated diseases and disorders using lantibiotic containing compositions” (Molichem Medicines, Inc., priority 2004, dated 2008).

What was measured:
clatharin-coated vesicle = clatharin-coated vesicle acidification; Stone et al., J. Biol. Chem. 259: 2701-2703 (1984)
[1] = aspirin used after the sentinel event, atherosclerotic heart disease (ASHD)

Row | Molecule | inhibition of the proton translocation facilitated by chloride translocation (clatharin-coated vesicle) | decrease of risk of MI [1]
1 | duramycin | up to 50% | 
2 | CC(=O)Oc1ccccc1C(=O)O [aspirin] |  | approximately 50%
